# Data published in patent US20260083742A1, “HOMOLOGOUS RECOMBINATION REPAIR DEFICIENCY (HRD) AS A PREDICTIVE BIOMARKER FOR TREATING CANCER WITH WEE1 INHIBITORS” (Zeno Management, Inc., priority 2023, published 2026).
# Like-named read-outs stand apart in the source and are kept apart here.
# Tests used:
# [1] = tested on: SUM149PT TNBC xenograft (BRCA1 splice isoform Δ11q); test: SUM149PT TNBC xenograft tumor growth inhibition; type: in vivo, mice
# Method: SUM149PT is a TNBC xenograft model harboring a BRCA1 splice isoform (Δ11q) that produces a truncated, partially functional protein which thereby promotes PARP inhibitor resistance. Azenosertib monotherapy and its combination with olaparib or AZD5305 was evaluated in the SUM149PT model in vivo in mice (FIGS. 10A-10B), and Table 12 summarizes the groups and treatments. Single agent treatment with olaparib at 100 mg/kg QD (FIG. 10A) or with the PARP1 selective inhibitor, AZD5305, at 0.1 or 1 mg/kg QD (FIG. 10B) confirmed SUM149PT resistance to PARP inhibitors.
# [2] = tested on: MDA-MB-436 Ola^R (BRCA reversion) TNBC cell line; test: In vitro activity (IC50) in olaparib-resistant MDA-MB-436; type: cell-based
# Method: (§1) Cells with BRCA reversion mutations may be considered HRD+due to genome instability (such as TAI, LST, LOH). BRCA reversion mutation is an established mechanism of resistance to both platinum-based chemotherapeutic drugs and PARP inhibitors. In vivo exploration of WEE1 inhibitors (azenosertib, adavosertib) and PARP inhibitors (niraparib, olaparib) was evaluated.
# (§2) MDA-MB-436 PARP inhibitor-resistant lines were generated by long-term in vitro treatment with a PARP inhibitor that is olaparib (Ola^R) or niraparib (Nir^R).
# [3] = tested on: 22RV1 (prostate cancer cell line) subcutaneous xenografts; test: 22RV1 subcutaneous xenograft tumor growth inhibition; type: in vivo, CB17 SCID mice
# Method: The prostate cancer cell line 22RV1 harbors a BRCA2 pathogenic mutation (HRD+). Briefly, 72 tumor-bearing mice were randomized and assigned into nine groups using a randomized block design based on their tumor volumes with eight mice per group. Each mouse was inoculated subcutaneously at the right flank with 22RV1 tumor cells in 0.2 mL mixture of Matrigel (5×10^6 cells/mouse). Treatments were started when the tumor size reached 199.94 mm^3 for tumor efficacy studies (Day 14 post inoculation). [table] Tumor size was measured twice weekly in two dimensions using caliper and expressed in mm3 using the formula: where a and b were long and short diameters of the tumor. The tumor size was used for calculations of T/C %. The T/C(%) was calculated according to the following formula: Two-way ANOVA followed by Bonferroni post-test was performed to compare tumor volumes among vehicle and other groups.
# [4] = Body weight loss and clinical observations in ovarian PDX study; type: in vivo
# Method: Relative Body Weight (RBW), individual body weight and mean body weight loss percent were calculated for each measurement by dividing the body weight by the body weight at the start of treatment as described in Example 3.
# [5] = tested on: MDA-MB-436 Nir^R (BRCA reversion) TNBC cell line; test: In vitro activity (IC50) in niraparib-resistant MDA-MB-436; type: cell-based
# Method: as §1, §2
# [6] = Body weight loss and clinical observations in TNBC PDX study; conditions: azenosertib 60 mg/kg and/or niraparib 35 mg/kg p.o., (5 days on, 2 days off) × 4
# Method: Animals were treated with 60 mg/kg azenosertib or 35 mg/kg niraparib alone or in combination on an intermittent dosing regimen of once a day for 5 days followed by 2 days off (qd x5, 2 days off) for 4 cycles (28 days).
# Relative body weight (RBW) is calculated for each measurement by dividing the body weight by the body weight at the start of treatment. Individual body weight loss percent is given by the formula: […]
# where BWx is the BW at any day during the treatment and BW0 is the BW on the day of inclusion.
# Mean body weight loss percent is given by the formula: […]
# where BWx is the mean BW at any day during the treatment and BW0 is the mean BW on the day of inclusion.
# Mean relative body weight (RBW) curves were obtained by plotting the mean RBW against time for each experimental group. Delta relative body weights (relative body weights of treated group compared to relative body weights of control group) were used for statistical analysis.
# [7] = tested on: parental MDA-MB-436 TNBC cell line; test: In vitro activity (IC50) in parental MDA-MB-436; type: cell-based
# Method: as §1, §2
# [8] = tested on: HCC1937 PARP inhibitor-resistant TNBC xenograft; test: HCC1937 TNBC xenograft tumor growth inhibition; type: in vivo, mice; conditions: olaparib 100 mg/kg QD
# Method: Anti-tumor activity of azenosertib monotherapy or in combination with olaparib was evaluated in the HCC1937 model in vivo in mice (FIG. 9), and Table 11 summarizes the groups and treatments. […] Treatment with monotherapy olaparib at 100 mg/kg QD confirmed HCC1937 resistance to the PARP inhibitor.
# [9] = Homo sapiens, MDA-MB-436 Ola^R, read-out: In vitro activity (IC50) Olaparib^R (BRCA reversion)
# [10] = niraparib 30 mg/kg p.o. qd × 5 3 cycle
# [11] = azenosertib 60 mg/kg and/or niraparib 35 mg/kg p.o., (5 days on, 2 days off) × 4
# [12] = Homo sapiens, parental MDA-MB-436, read-out: In vitro activity (IC50) Wild Type
# [13] = MDA-MB-436 Ola^R, read-out: In vitro activity (IC50) Olaparib^R (BRCA reversion)
# [14] = parental MDA-MB-436, read-out: In vitro activity (IC50) Wild Type
# [15] = olaparib 50 mg/kg p.o. qd × 5 3 cycle
smiles,measurement,setting,value
"CCc1cc2ncc(CN3CCN(c4ccc(C(=O)NC)nc4)CC3)cc2[nH]c1=O [AZD5305, saruparib]",anti-tumor activity of single agent,[1]; AZD5305 0.1 or 1 mg/kg QD,resistance
"NC(=O)c1cccc2cn(-c3ccc([C@@H]4CCCNC4)cc3)nc12 [Niraparib, niraparib]",IC50,[2]; [9],7.73 µM
same,% TGI Day 5,[3]; [10],31.64%
same,% TGI Day 8,[3]; [10],18.17%
same,% TGI Day 12,[3]; [10],21.99%
same,% TGI Day 15,[3]; [10],4.28%
same,% TGI Day 19,[3]; [10],−1.28%
same,Max. individual BWL,[4]; [11],7.0%
same,Max. mean BWL,[4]; [11],1.5%
same,tolerability (body weight data and clinical observations),"[4]; azenosertib at 60 mg/kg, niraparib at 35 mg/kg, single agents or in combination",well tolerated
same,IC50,[5]; Homo sapiens,8.65 µM
same,Max. individual BWL,[6],6.2%
same,Max. mean BWL,[6],3.4%
same,IC50,[7]; [12],0.103 µM
C[C@@H]1COCCN1c1cc(C2([S@](C)(=N)=O)CC2)nc(-c2cc[nH]c3nccc2-3)n1 [AZD6738],IC50,[2]; [13],1.84 µM
same,IC50,[5],1.77 µM
same,IC50,[7]; [14],3.67 µM
CN(C)CCCOc1ccc(-c2ccc3ncc4c(c3c2)n(C2CCOCC2)c(=O)n4C)cn1 [AZD0156],IC50,[2]; [13],1.99 µM
same,IC50,[5],2.08 µM
same,IC50,[7]; [14],4.98 µM
Cc1cc2ncnn2cc1Nc1ncc2c(n1)n(C1CCOCC1)c(=O)n2C [AZD7648],IC50,[2]; [13],> 10 µM
same,IC50,[5],> 10 µM
same,IC50,[7]; [14],> 10 µM
Cn1cc(-c2cnn3c(N)c(Br)c([C@@H]4CCCNC4)nc23)cn1 [MK8776],IC50,"[2]; Homo sapiens, MDA-MB-436, read-out: In vitro activity (IC50) Olaparib^R (BRCA reversion)",5.97 µM
same,IC50,"[7]; Homo sapiens, MDA-MB-436, read-out: In vitro activity (IC50) Wild Type",> 10 µM
"O=C(c1cc(Cc2n[nH]c(=O)c3ccccc23)ccc1F)N1CCN(C(=O)C2CC2)CC1 [Olaparib, olaparib]",IC50,[2]; [9],> 10 µM
same,% TGI Day 5,[3]; [15],33.81%
same,% TGI Day 8,[3]; [15],26.80%
same,% TGI Day 12,[3]; [15],18.2%
same,% TGI Day 15,[3]; [15],5.03%
same,% TGI Day 19,[3]; [15],14.79%
same,anti-tumor activity of monotherapy,[8],resistance
same,IC50,[5]; Homo sapiens,> 10 µM
same,anti-tumor activity of single agent,[1]; olaparib 100 mg/kg QD,resistance
same,IC50,[7]; [12],0.095 µM
